# Measurements as given in ChEMBL document CHEMBL1131694, “New minimal substrate structural requirements in the enzymatic peroxidation of alkenes with soybean lipoxygenase” (Bioorg Med Chem Lett, 1999).
# Active and inactive are the calls of the source. The rule behind the calls is not given here.
# Tests used:
# [1] = target: T1, Seed linoleate 13S-lipoxygenase-1 (Glycine max) (UniProt P08170)
# T1 sequence (whole entry): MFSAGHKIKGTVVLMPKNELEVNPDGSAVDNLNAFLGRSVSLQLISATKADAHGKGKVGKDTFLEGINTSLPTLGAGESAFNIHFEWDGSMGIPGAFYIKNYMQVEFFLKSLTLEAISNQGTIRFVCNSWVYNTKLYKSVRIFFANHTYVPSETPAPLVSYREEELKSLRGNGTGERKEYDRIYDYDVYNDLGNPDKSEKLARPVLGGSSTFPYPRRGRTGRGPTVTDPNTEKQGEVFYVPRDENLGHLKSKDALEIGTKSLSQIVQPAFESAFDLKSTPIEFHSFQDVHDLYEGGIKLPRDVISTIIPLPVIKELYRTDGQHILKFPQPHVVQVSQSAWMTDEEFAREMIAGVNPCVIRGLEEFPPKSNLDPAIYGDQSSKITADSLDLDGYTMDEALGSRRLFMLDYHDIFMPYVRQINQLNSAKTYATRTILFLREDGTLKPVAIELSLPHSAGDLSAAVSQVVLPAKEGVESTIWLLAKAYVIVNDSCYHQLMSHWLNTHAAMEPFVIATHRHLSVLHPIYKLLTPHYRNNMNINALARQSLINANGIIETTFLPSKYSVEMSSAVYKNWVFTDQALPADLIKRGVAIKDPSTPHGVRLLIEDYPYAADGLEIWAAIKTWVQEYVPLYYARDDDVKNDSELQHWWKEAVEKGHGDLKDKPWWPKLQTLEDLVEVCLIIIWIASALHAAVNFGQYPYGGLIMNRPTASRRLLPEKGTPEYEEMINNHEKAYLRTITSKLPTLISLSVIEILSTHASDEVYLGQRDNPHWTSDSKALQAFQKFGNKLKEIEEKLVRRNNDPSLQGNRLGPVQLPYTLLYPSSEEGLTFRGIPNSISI
# [2] = Partition coefficient (logP); type: physicochemical; details: octanol/water
# [3] = target: T1, Seed linoleate 13S-lipoxygenase-1 (Glycine max); assay: Ratio of proximal to distal region oxidation by 1-lipoxygenase isolated from soybean; Ratio of proximal and distal was 99:1
# [4] = target: T1, Seed linoleate 13S-lipoxygenase-1 (Glycine max); assay: Ratio of proximal to distal region oxidation by 1-lipoxygenase isolated from soybean; Ratio of proximal and distal was 87:13
# [5] = target: T1, Seed linoleate 13S-lipoxygenase-1 (Glycine max); assay: Ratio of proximal to distal region oxidation by 1-lipoxygenase isolated from soybean; Ratio of proximal and distal was 50:50
# [6] = target: T1, Seed linoleate 13S-lipoxygenase-1 (Glycine max); assay: Ratio of proximal to distal region oxidation by 1-lipoxygenase isolated from soybean; Ratio of proximal and distal was 95:5
# [7] = target: T1, Seed linoleate 13S-lipoxygenase-1 (Glycine max); assay: Ratio of proximal to distal region oxidation by 1-lipoxygenase isolated from soybean; Ratio of proximal and distal was 10:90
# [8] = target: T1, Seed linoleate 13S-lipoxygenase-1 (Glycine max); assay: Ratio of proximal to distal region oxidation by 1-lipoxygenase isolated from soybean; Ratio of proximal and distal was 76:24
# [9] = target: T1, Seed linoleate 13S-lipoxygenase-1 (Glycine max); assay: Ratio of proximal to distal region oxidation by 1-lipoxygenase isolated from soybean; Ratio of proximal and distal was 35:65
# [10] = target: T1, Seed linoleate 13S-lipoxygenase-1 (Glycine max); assay: Ratio of proximal to distal region oxidation by 1-lipoxygenase isolated from soybean; Ratio of proximal and distal was 89:11
# [11] = target: T1, Seed linoleate 13S-lipoxygenase-1 (Glycine max); assay: Ratio of proximal to distal region oxidation by 1-lipoxygenase isolated from soybean; Ratio of proximal and distal was 1:99
# [12] = target: T1, Seed linoleate 13S-lipoxygenase-1 (Glycine max); assay: Ratio of proximal to distal region oxidation by 1-lipoxygenase isolated from soybean; Ratio of proximal and distal was 25:75
smiles,measurement,setting,value
CCCCC/C=C\C/C=C\CCCCCCCC(=O)O,Regiospecificity,[1],Active
[N-]=[N+]=NCC/C=C/C=C/[C@@H](O)CCO,logP,[2]; read-out: logP,6.1
CCCCC/C=C\C/C=C\CCOC(=O)COCCO,Regiospecificity,[3],Ratio of proximal and distal was 99:1
CCCCCC/C=C\C/C=C\CCOC(=O)CCCCC(=O)O,Regiospecificity,[4],Ratio of proximal and distal was 87:13
CCCCCCCC/C=C\C/C=C\CCOC(=O)CCCCC(=O)O,Regiospecificity,[5],Ratio of proximal and distal was 50:50
CCCC/C=C\C=C\[C@@H](O)CCO,logP,[2]; read-out: logP,2.82
CCCCCCCC/C=C\C=C\[C@@H](O)CCO,logP,[2]; read-out: logP,4.41
CCCCC/C=C\C/C=C\CCOC(=O)CCCCC(=O)O,Regiospecificity,[6],Ratio of proximal and distal was 95:5
CCCCCCCC/C=C\C/C=C\CCOC(=O)COCCO,Regiospecificity,[7],Ratio of proximal and distal was 10:90
CCCCCCC/C=C\C/C=C\CCOC(=O)CCCCC(=O)O,Regiospecificity,[8],Ratio of proximal and distal was 76:24
CCCCCCCCC/C=C\C/C=C\CCOC(=O)CCCCC(=O)O,Regiospecificity,[9],Ratio of proximal and distal was 35:65
CC(C)=CCC/C(C)=C/C/C=C\C=C\[C@@H](O)CCO,logP,[2],3.7
[N-]=[N+]=NCC/C=C\C/C=C\CCOC(=O)COCCO,Regiospecificity,[10],Ratio of proximal and distal was 89:11
CC(C)=CCC/C(C)=C/C/C=C\C/C=C\CCOC(=O)COCCO,Regiospecificity,[11],Ratio of proximal and distal was 1:99
CCCCCCCCCC/C=C\C/C=C\CCOC(=O)CCCCC(=O)O,Regiospecificity,[12],Ratio of proximal and distal was 25:75
CC(C)=CCC/C(C)=C/C/C=C\C/C=C\CCOC(=O)CCCCC(=O)O,Regiospecificity,[11],Ratio of proximal and distal was 1:99
